How the values were obtained:
[1] = molecular target: recombinant human FLAP protein (Homo sapiens (Human), UniProt P20292); test: FLAP binding assay (Scintillation Proximity Assay, displacement of [125I]L-691,831); settings: read-out: FLAP SPA IC50
Procedure: Assessment of Biological Properties 1. Binding Assay: Compounds are assessed for the ability to bind to FLAP in a binding assay that measures compound-specific displacement of an iodinated (^125I) FLAP inhibitor via a Scintillation Proximity Assay format (adapted from S. Charleson et al., Mol. Pharmacol., 1992, 41, 873-879). […] The cells are lysed with a Dounce homogenizer and the material is centrifuged at 10,000×g for 10 minutes. The supernatant is then collected and centrifuged at 100,000×g for 60 minutes. To prepare membrane protein for an assay, an aliquot of the 100,000×g pellet is resuspended in 1 ml of buffer A, Dounce homogenized, and finally subjected to polytron mixing (30 seconds). […] Mol. Pharmacol., 41, 873-879, 1992) and finally 50 μl of the bead/protein mixture. (final concentrations: beads, 200 μg/well; protein, 5 μg/well; […] The plates are shaken for 2 h before reading on a Microbeta plate reader.

[2] = test system: synthesis of LTB4 in human whole blood; test: Human whole blood LTB4 production inhibition assay; format: cell-based; settings: calcimycin stimulated, read-out: hWB LTB4 IC50
Procedure: Compounds are additionally tested in a human whole blood assay to determine their ability to inhibit the synthesis of LTB4 in a cellular system. Compounds are combined with heparinized human whole blood and incubated for 15 minutes at 37° C. Calcimycin (20 μM final, prepared in phosphate-buffered saline, pH 7.4) is then added and the mixture is incubated for another 30 minutes at 37° C. The samples are centrifuged for 5 min at low speed (1500×g) and the plasma layer is removed. Plasma LTB4 concentrations are then measured using an antibody-based homogenous time-resolved fluorescence method (CisBio, Bedford, Mass.).

recombinant human FLAP protein, sequence (P20292 whole entry): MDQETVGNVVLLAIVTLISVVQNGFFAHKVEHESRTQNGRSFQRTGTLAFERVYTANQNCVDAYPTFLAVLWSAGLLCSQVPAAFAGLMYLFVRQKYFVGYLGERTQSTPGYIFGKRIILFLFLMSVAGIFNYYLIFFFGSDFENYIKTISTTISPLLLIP

Compound | IC50 [1] [nM] | IC50 [2] [nM]
5-(6-{1-[5-(3-methyl- 1H-pyrazol-4-yl)-1,2,4- oxadiazol-3- yl]cyclobutyl}pyridin-3- yl)pyrimidin-2-amine [Example 135] | 27 | 400
CC(C)(C)OC(=O)N1CCN(c2ccc(-c3nc(C4(c5ccc(-c6cnc(N)nc6)nc5)CCC4)no3)cn2)CC1 [Example 1, tert-butyl 4-[5-(3-{1-[6-(2-aminopyrimidin-5-yl)pyridin-3-yl]cyclobutyl}-1,2,4-oxadiazol-5-yl)pyridin-2-yl]piperazine-1-carboxylate] | 3.8 | 280
NC(=O)CNc1ccc(-c2nc(C3(c4ccc(-c5cnc(N)nc5)nc4)CCC3)no2)cn1 [Example 2, N-2-[5-(3-{1-[6-(2-aminopyrimidin-5-yl)pyridin-3-yl]cyclobutyl}-1,2,4-oxadiazol-5-yl)pyridin-2-yl]glycinamide] | 5 | 740
Nc1ncc(-c2ccc(C3(c4noc(-c5ccc(N6CCNCC6)nc5)n4)CCC3)cn2)cn1 [Example 3, 5-[5-(1-{5-[6-(piperazin-1-yl)pyridin-3-yl]-1,2,4-oxadiazol-3-yl}cyclobutyl)pyridin-2-yl]pyrimidin-2-amine] | 2.7 | 150
Nc1ncc(-c2ccc(C3(c4noc(-c5cc[nH]n5)n4)CCC3)cn2)cn1 [Example 4, 5-(5-{1-[5-(1H-pyrazol-3-yl)-1,2,4-oxadiazol-3-yl]cyclobutyl}pyridin-2-yl)pyrimidin-2-amine] | 17 | 430
Cc1cccc(-c2nc(C3(c4ccc(-c5cnc(N)nc5)nc4)CCC3)no2)c1 [Example 5, 5-(5-{1-[5-(3-methylphenyl)-1,2,4-oxadiazol-3-yl]cyclobutyl}pyridin-2-yl)pyrimidin-2-amine] | 8.8 | 1100
Cc1ccc(-c2nc(C3(c4ccc(-c5cnc(N)nc5)nc4)CCC3)no2)cc1 [Example 6, 5-(5-{1-[5-(4-methylphenyl)-1,2,4-oxadiazol-3-yl]cyclobutyl}pyridin-2-yl)pyrimidin-2-amine] | 5.8 | 830
CS(=O)(=O)c1ccc(-c2nc(C3(c4ccc(-c5cnc(N)nc5)nc4)CCC3)no2)cc1 [Example 7, 5-[5-(1-{5-[4-(methylsulfonyl)phenyl]-1,2,4-oxadiazol-3-yl}cyclobutyl)pyridin-2-yl]pyrimidin-2-amine] | 11 | 690
CCNc1ccc(-c2nc(C3(c4ccc(-c5cnc(N)nc5)nc4)CCC3)no2)cn1 [Example 8, 5-[5-(1-{5-[6-(ethylamino)pyridin-3-yl]-1,2,4-oxadiazol-3-yl}cyclobutyl)pyridin-2-yl]pyrimidin-2-amine] | 2 | 110
Nc1ncc(-c2ccc(C3(c4noc(-c5ccc(NC6CC6)nc5)n4)CCC3)cn2)cn1 [Example 9, 5-[5-(1-{5-[6-(cyclopropylamino)pyridin-3-yl]-1,2,4-oxadiazol-3-yl}cyclobutyl)pyridin-2-yl]pyrimidin-2-amine] | 2.9 | 320
Nc1ncc(-c2ccc(C3(c4noc(-c5cc(N)[nH]n5)n4)CCC3)cn2)cn1 [Example 10, 5-(5-{1-[5-(5-amino-1H-pyrazol-3-yl)-1,2,4-oxadiazol-3-yl]cyclobutyl}pyridin-2-yl)pyrimidin-2-amine] | 30 | 650
CS(=O)(=O)c1cccc(-c2nc(C3(c4ccc(-c5cnc(N)nc5)nc4)CCC3)no2)c1 [Example 11, 5-[5-(1-{5-[3-(methylsulfonyl)phenyl]-1,2,4-oxadiazol-3-yl}cyclobutyl)pyridin-2-yl]pyrimidin-2-amine] | 78 | 2200
COCCn1cc(-c2nc(C3(c4ccc(-c5cnc(N)nc5)nc4)CCC3)no2)cn1 [Example 28, 5-[5-(1-{5-[1-(2-methoxyethyl)-1H-pyrazol-4-yl]-1,2,4-oxadiazol-3-yl}cyclobutyl)pyridin-2-yl]pyrimidin-2-amine] |  | 210
COC(=O)[C@@H]1CN(c2ccc(-c3nc(C4(c5ccc(-c6cnc(N)nc6)nc5)CCC4)no3)cn2)CCN1 [Example 39, methyl (2S)-[5-(3-{1-[6-(2-aminopyrimidin-5-yl)pyridin-3-yl]cyclobutyl}-1,2,4-oxadiazol-5-yl)pyridin-2-yl]piperazine-2-carboxylate] |  | 86
COCCNc1cnc(-c2nc(C3(c4ccc(-c5cnc(N)nc5)nc4)CCC3)no2)cn1 [Example 56, 5-{5-[1-(5-{5-[(2-methoxyethyl)amino]pyrazin-2-yl}-1,2,4-oxadiazol-3-yl)cyclobutyl]pyridin-2-yl}pyrimidin-2-amine] |  | 24
CCNc1cnc(-c2nc(C3(c4ccc(-c5cnc(N)nc5)nc4)CCC3)no2)cn1 [Example 57, 5-[5-(1-{5-[5-(ethylamino)pyrazin-2-yl]-1,2,4-oxadiazol-3-yl}cyclobutyl)pyridin-2-yl]pyrimidin-2-amine] |  | 34
CN1CCN(c2cnc(-c3nc(C4(c5ccc(-c6cnc(N)nc6)nc5)CCC4)no3)cn2)CC1 [Example 61, 5-[5-(1-{5-[5-(4-methylpiperazin-1-yl)pyrazin-2-yl]-1,2,4-oxadiazol-3-yl}cyclobutyl)pyridin-2-yl]pyrimidin-2-amine] |  | 41
Nc1ncc(-c2ccc(C3(c4noc(-c5ccc6[nH]ncc6c5)n4)CCC3)cn2)cn1 [Example 79, 5-(5-{1-[5-(1H-indazol-5-yl)-1,2,4-oxadiazol-3-yl]cyclobutyl}pyridin-2-yl)pyrimidin-2-amine] |  | 68
CC(C)(C)NC(=O)Cn1cc(-c2nc(C3(c4ccc(-c5cnc(N)nc5)nc4)CCC3)no2)cn1 [Example 144, 2-[4-(3-{1-[6-(2-aminopyrimidin-5-yl)pyridin-3-yl]cyclobutyl}-1,2,4-oxadiazol-5-yl)-1H-pyrazol-1-yl]-N-tert-butylacetamide] |  | 190
CCNC(=O)Cn1cc(-c2nc(C3(c4ccc(-c5cnc(N)nc5)nc4)CCC3)no2)cn1 [Example 158, 2-[4-(3-{1-[6-(2-amino-pyrimidin-5-yl)-pyridin-3-yl]-cyclobutyl}-[1,2,4]oxadiazol-5-yl)-pyrazol-1-yl]-N-ethyl-acetamide] |  | 550
Cc1nc(N)cnc1-c1ccc(C2(c3noc(-c4cnn(C5COC5)c4)n3)CCC2)cn1 [Example 169, 6-Methyl-5-(5-{1-[5-(1-oxetan-3-yl-1H-pyrazol-4-yl)-[1,2,4]oxadiazol-3-yl]-cyclobutyl}-pyridin-2-yl)-pyrazin-2-ylamine] |  | 21
N#CCn1cc(-c2nc(C3(c4ccc(-c5cnc(N)cn5)nc4)CCC3)no2)cn1 [Example 170, [4-(3-{1-[6-(5-Amino-pyrazin-2-yl)-pyridin-3-yl]-cyclobutyl}-[1,2,4]oxadiazol-5-yl)-pyrazol-1-yl]-acetonitrile] |  | 51
Cc1nc(N)cnc1-c1ccc(C2(c3noc(-c4cnn(CC(C)(C)O)c4)n3)CCC2)cn1 [Example 172, 1-[4-(3-{1-[6-(5-Amino-3-methyl-pyrazin-2-yl)-pyridin-3-yl]-cyclobutyl}-[1,2,4]oxadiazol-5-yl)-pyrazol-1-yl]-2-methyl-propan-2-ol] |  | 51
CNc1cnc(-c2ccc(C3(c4noc(-c5cnn(CC#N)c5)n4)CCC3)cn2)cn1 [Example 173, [4-(3-{1-[6-(5-Methylamino-pyrazin-2-yl)-pyridin-3-yl]-cyclobutyl}-[1,2,4]oxadiazol-5-yl)-pyrazol-1-yl]-acetonitrile] |  | 18

— US8575201B2 (Boehringer Ingelheim International GmbH, priority 2010, dated 2013)
